Tested on: M. tuberculosis ompA mutant
Type: cell-based

CC[C@H]1OC(=O)[C@H](C)[C@@H](O[C@H]2C[C@@](C)(OC)[C@@H](O)[C@H](C)O2)[C@H](C)[C@@H](O[C@@H]2O[C@H](C)C[C@H](N(C)C)[C@H]2O)[C@](C)(O)C[C@@H](C)C(=O)[C@H](C)[C@@H](O)[C@]1(C)O [erythromycin]
Sensitivity of M. tuberculosis ompA mutant compared to wild type: slightly increased resistance

CN[C@H](CC(C)C)C(=O)N[C@H]1C(=O)N[C@@H](CC(N)=O)C(=O)N[C@H]2C(=O)N[C@H]3C(=O)N[C@H](C(=O)N[C@H](C(=O)O)c4cc(O)cc(O)c4-c4cc3ccc4O)[C@H](O)c3ccc(c(Cl)c3)Oc3cc2cc(c3O[C@@H]2O[C@H](CO)[C@@H](O)[C@H](O)[C@H]2O[C@H]2C[C@](C)(N)[C@H](O)[C@H](C)O2)Oc2ccc(cc2Cl)[C@H]1O [vancomycin]
Sensitivity of M. tuberculosis ompA mutant compared to wild type: slightly increased resistance

From publication PMC3158675, “Effective inhibitors of the essential kinase PknB and their potential as anti-mycobacterial agents” (Tuberculosis (Edinburgh, Scotland), 2011)
